Experimental data: paper PMC5829242, “Chiral DOTA chelators as an improved platform for biomedical imaging and therapy applications” (Nature Communications, 2018)

Assays:
[1] = Stability of Eu complexes on heating, at low pD and with Zn2+ (1H NMR); format: physicochemical
[2] = Stability of Yb complexes in 1N DCl by 1H NMR; format: physicochemical
Experimental: (§4) The stability of CuDOTA and CuL2 was compared by UV-Visible spectra. […] Because the ionic radii of Lu(III) is very close to Yb(III), so we used the Yb(III) as a surrogate to study the stability. […] Additionally, we examined in vitro serum stability of ^64CuL2 at 37 °C.

[3] = In vitro serum stability of 64CuL2; format: in vitro ADME; settings: 37 °C
Experimental: as §4

[4] = 17O NMR water exchange (residence time of water co-ligand); format: physicochemical; settings: 17O NMR at 11.7T; for τM^310K, mean residence time of the water co-ligand at 310 K: q = 1 assumed
Experimental: (§1) Relaxivity measurements were performed on a Bruker mq60 Minispec at 1.41T and 37 °C. Longitudinal (T1) relaxation times were measured using an inversion recovery experiment with 10 inversion times of duration ranging between 0.05 × T1 and 5 × T1. Transverse (T2) relaxation times were measured using a CPMG pulse sequence. Relaxivity (r1, r2) was determined from the slope of a plot of 1/T1,2 vs [Gd] for at least 4 concentrations of Gd(III) (data shown in Supplementary Figs. 93–110). The T2 relaxation times of ^17O at 11.7T were estimated from the full-width at half-height of the H2^17O resonance at temperatures ranging from 278 to 368K. Reduced relaxation rates (1/T2r) were calculated by taking the difference of 1/T2 measured in the presence and absence of Gd(III) and dividing by the mole fraction of coordinated water molecules, assuming q = 1. […] However, at the high magnetic field used, and because of the very-fast water exchange rates observed, there was negligible contribution of T1e, and the data were refit to a two-parameter model using the water exchange rate at 310K (τM) and enthalpy of activation for water exchange (ΔH^‡) as adjustable parameters. The Gd-O hyperfine coupling constant, A/ħ, was assumed to be -3.8 × 10^6 rad s^−1 [57], [58]. Samples were prepared in neat H2O adjusted and enriched with a small amount of H2^17O.

[5] = Relaxivity measurements at 1.41T and 37 °C; format: physicochemical
Experimental: as §1

[6] = Gd complexes biodistribution studies (ICP-MS); format: in vivo, BALB/c mice; settings: 0.025 mmol/kg i.v., 5-360 min post injection
From the text: Most commercially available Gd(III)-based MRI contrast agents are excreted rapidly and exclusively through the renal pathway. One of the few exceptions is an acyclic compound, Gd-EOB-DTPA, which has a mixed clearance (50% renal, 50% biliary) and is used for imaging of the liver and biliary system. Gd-BOPTA and MS-325 have predominantly renal elimination with <10% elimination through the biliary system. […] We illustrated with our studies that there is a significant variation in the biodistribution profiles despite the small structural differences of the chiral substituents (Supplementary Fig. 20). Gd biodistribution in BALB/c mice was measured by ICP-MS at 5, 15, 30, 60, 180 and 360 min following injection. […] Low levels of Gd(III) are present at 6 h post injection. […] The specific and unusual localisation of [GdL2]^− in the liver makes it a potential hepatobiliary-specific MRI contrast agent.
(§2) Gd concentrations were determined using an Agilent 8800-QQQ ICP-MS system. All samples were diluted with 0.1% Triton X-100 in 5% nitric acid. Lutetium internal standard was steadily introduced to the ICP-MS from an external source during the analysis. A linear calibration curve for each metal ranging from 0.1 ppb to 200 ppb was generated daily for the quantification.
Complexes [GdL1]^−, [GdL2]^− and [GdL5]^− were prepared by dissolving in saline solution, while [GdDOTA]^− (Dotarem) was diluted in saline solution. Eight-week-old male BALB/c mice (purchased from BioLASCO, Taiwan) each weighing approximately 25 g were administered with a single dose of 0.025 mmol/kg compound ([GdL1]^−, [GdL2]^−, [GdDOTA]^− and [GdL5]^−; 3 mice per compound per time point) in a 100 μl volume via lateral tail vein injection. The mice were then euthanized, and their blood collected by cardiac puncture at each time point (5, 15, 30, 60, 180 or 360 min post injection). A control group of 4 mice was treated with saline and killed at time point 0. The liver, lung, heart, kidneys, spleen and brain were removed from the animals and weighed. Gd content in tissue and blood samples was quantified via ICP-MS analysis. All experiments were performed in accordance with the NIH Guide for the Care and Use of Laboratory Animals and approved by the Institutional Animal Care and Use Committee of Massachusetts General Hospital or by the Department of Health of the Hong Kong Government and the Animal Subjects Ethics Sub-Committee of Hong Kong Polytechnic University.

[7] = In vivo dynamic T1-weighted MR imaging at 4.7T; design: species or system C57/Bl6 mice; settings: 0.1 mmol per kg i.v., 4.7 tesla, n = 1
Experimental: Dynamic T1-weighted MR imaging at 4.7 tesla was performed with C57/Bl6 mice before, during, and after 0.1 mmol per kg injection of each compound (Fig. 7).
(§3) Imaging was performed at 4.7T using a small-bore animal scanner (Bruker Biospec). Pilot dynamic MRI studies were performed with [GdL1]^−, [GdL2A]^−, [GdL2B]^− and [GdL5]^−; n = 1 per compound. Six to eight weeks male C57/Bl6 mice were anaesthetised with isoflurane (1%–2%) and placed in a specially designed cradle with body temperature maintained at 37 °C. The tail vein was catherised for intravenous delivery of the contrast agent while the animal was positioned in the scanner. A pneumatic pillow was placed on the mouse to enable respiratory monitoring (SA Instruments), and the animal’s body temperature was maintained with warm air. The imaging protocol utilised a three-dimensional fast low angle shot (3D FLASH) with a […] flip angle, 9.00 ms repetition rate, 2.39 ms echo time, 4.8 cm × 2.4 cm × 2.4 cm field of view with a 0.3 mm isotropic resolution. Images were acquired with either 2 or 8 averages giving an acquisition time of 2 min or 8 min, respectively. Baseline images were acquired with both 2 and 8 averages, then the Gd complex (0.1 mmol per kg) was injected intravenously and the sequence with 2 averages was repeated for a period of 10 min to monitor blood clearance. At 10, 30, 45, 60, 75 and 90 min after probe injection, the sequence with 8 averages was repeated to monitor the clearance of contrast from the liver and kidneys. After imaging was performed, the mouse was removed from the scanner and euthanized at 2 h post injection and the tissues were harvested for Gd quantification by ICP-MS.

[8] = Ex vivo biodistribution 2 h post injection after MRI study (ICP-MS); format: in vivo, C57/Bl6 mice; settings: 0.1 mmol per kg i.v.
Experimental: as §2, §3

[9] = Kinetic stability of Gd complexes monitored by RP-HPLC (acid, base, DTPA, DOTA, ZnCl2); format: physicochemical
From the text: The kinetic stability of GBCAs, which reflects the dissociation of the Gd ions from its chelate is used to predict the stability in vivo[10]. The proton-assisted dissociation and direct attack of the endogenous ions are regarded as two main pathways that induced the dissociation of the chelates. The inertness of our Gd(III) complexes was maintained up to 7 days after addition of 1000 equivalents of a competitive ligand, DTPA (Supplementary Fig. 7 & 8). […] The harshest condition tried was setting the complexes of [GdL2A]^−, [GdL2B]^− and [GdDOTA]^− in 1N HCl (Fig. 5, Supplementary Figs. 13 - 15).
Fig. […] Error bars for [GdL2A]^- and [GdL2B]^- refer to the standard error of mean (S.E.M.), statistical data fitting analysis (n = 3; s.e.m.)

In the case of `CC[C@H]1CN(CC(=O)[O-])[C@@H](CC)CN(CC(=O)[O-])[C@@H](CC)CN(CC(=O)[O-])[C@@H](CC)CN1CC(=O)[O-].[Eu+3]` [[EuL2A]^−], the “stability with Zn2+” value ([1]; 1 equivalent of Zn^2+) is reported as “nor did the presence of 1 equivalent of Zn^2+ caused any instability”, the inertness upon heating ([1]; 90 °C for 3 days, pD 7.0 ([EuL2A]) and 6.0 ([EuL2B])) is reported as “extreme inertness” and the racemization upon heating ([1]; heating for 3 days at pD 1.0) is reported as “no signs of racemization”.
In the case of `O=C([O-])CN1CCN(CC(=O)[O-])CCN(CC(=O)[O-])CCN(CC(=O)[O-])CC1.[Yb+3]` [[YbDOTA]^−, reference compound], the decomplexation [2] is reported as “decomplexed very fast”.
With `CC[C@H]1CN(CC(=O)O)[C@@H](CC)CN(CC(=O)[O-])[C@@H](CC)CN(CC(=O)O)[C@@H](CC)CN1CC(=O)[O-].[64Cu+2]` [^64CuL2] the “decrease of radiochemical purity” value ([3]; 1 h of incubation) was “less than 0.3%” and the “decrease of radiochemical purity” value ([3]; 24 h of incubation) was less than 6.3%.
With `NCCCC[C@H]1CN(CC(=O)[O-])[C@@H](CCCCN)CN(CC(=O)[O-])[C@@H](CCCCN)CN(CC(=O)[O-])[C@@H](CCCCN)CN1CC(=O)[O-].[Gd+3]` [[GdL5]^−] the “ΔH^‡, enthalpy change of activation of water exchange” value (“ΔH^‡, enthalpy change” for short) [4] was 4.3 ± 0.598 kcal/mol, the “τM^310K, mean residence time of the water co-ligand at 310 K” value (from here on “τM^310K, mean residence time”) [4] was 16 ± 0.8 ns and the r1 relaxivity ([5]; 4.5% w/v HSA (1.4T)) was 5.1 mM⁻¹ s⁻¹. The r1 relaxivity ([5]; Human Plasma (1.4T)) was 5.1 mM⁻¹ s⁻¹, the r1 relaxivity ([5]; Water (1.4T)) was 4.1 mM⁻¹ s⁻¹ and the “Gd biodistribution / elimination profile” value [6] was “mainly in the kidney and showed no tendency of clearance after 6 h”. The “MR enhancement of liver and gall bladder” value [7] was “very little enhancement in the liver”, the “MR signal in the kidneys over time / at 60 min post injection” value [7] was “renal cortex remained strongly enhanced” and the “Gd concentration in blood” value [8] was 0.80 nmol Gd per gram tissue. For the same compound, the “Gd concentration in gall bladder” value [8] was 60.17 nmol Gd per gram tissue, the “Gd concentration in heart” value [8] was 2.18 nmol Gd per gram tissue and the “Gd concentration in intestines” value [8] was 2.68 nmol Gd per gram tissue. The “Gd concentration in kidney” value [8] was “over 90 nmol Gd per gram tissue”, the “Gd concentration in liver” value [8] was 2.01 nmol Gd per gram tissue and the “Gd concentration in lung” value [8] was 1.49 nmol Gd per gram tissue. For the same compound, the “Gd concentration in muscle” value [8] was 2.97 nmol Gd per gram tissue, the “Gd concentration in spleen” value [8] was 4.43 nmol Gd per gram tissue and the “Gd concentration in stomach” value [8] was 1.11 nmol Gd per gram tissue. The “Gd concentration in tail” value [8] was 2.28 nmol Gd per gram tissue and the “Gd concentration in kidney” value ([8]; listed as GdL5) was 93.23 nmol Gd per gram tissue.
With `C[C@H]1CN(CC(=O)[O-])[C@@H](C)CN(CC(=O)[O-])[C@@H](C)CN(CC(=O)[O-])[C@@H](C)CN1CC(=O)[O-].[Gd+3]` [[GdL1]^−] the “ΔH^‡, enthalpy change” value [4] was 3.82 ± 0.335 kcal/mol, the “τM^310K, mean residence time” value [4] was 13 ± 0.4 ns and the r1 relaxivity ([5]; 4.5% w/v HSA (1.4T)) was 4.5 mM⁻¹ s⁻¹. For the same compound, the r1 relaxivity ([5]; Human Plasma (1.4T)) was 4.6 mM⁻¹ s⁻¹, the r1 relaxivity ([5]; Water (1.4T)) was 4.1 mM⁻¹ s⁻¹ and the “Gd biodistribution / elimination profile” value [6] was “near equal renal and hepatic clearance”. For the same compound, the “MR enhancement of liver and gall bladder” value [7] was “some enhancement of the liver and gall bladder”, the “Gd concentration in blood” value [8] was 1.04 nmol Gd per gram tissue and the “Gd concentration in gall bladder” value [8] was 139.87 nmol Gd per gram tissue. For the same compound, the “Gd concentration in heart” value [8] was 1.68 nmol Gd per gram tissue, the “Gd concentration in intestines” value [8] was 7.75 nmol Gd per gram tissue and the “Gd concentration in kidney” value [8] was 16.71 nmol Gd per gram tissue. The “Gd concentration in liver” value [8] was 1.64 nmol Gd per gram tissue, the “Gd concentration in lung” value [8] was 1.81 nmol Gd per gram tissue and the “Gd concentration in muscle” value [8] was 4.29 nmol Gd per gram tissue. The “Gd concentration in spleen” value [8] was 6.63 nmol Gd per gram tissue, the “Gd concentration in stomach” value [8] was 11.35 nmol Gd per gram tissue and the “Gd concentration in tail” value [8] was 4.57 nmol Gd per gram tissue.
With `CC[C@H]1CN(CC(=O)[O-])[C@@H](CC)CN(CC(=O)[O-])[C@@H](CC)CN(CC(=O)[O-])[C@@H](CC)CN1CC(=O)[O-].[Gd+3]` [[GdL2A]^−] the “ΔH^‡, enthalpy change” value [4] was 10.3 ± 0.478 kcal/mol, the “τM^310K, mean residence time” value [4] was 6.6 ± 0.4 ns and the r1 relaxivity ([5]; 4.5% w/v HSA (1.4T)) was 4.7 mM⁻¹ s⁻¹. The r1 relaxivity ([5]; Human Plasma (1.4T)) was 4.7 mM⁻¹ s⁻¹, the r1 relaxivity ([5]; Water (1.4T)) was 4.2 mM⁻¹ s⁻¹ and the decomplexation ([9]; 0.1N NaOH, over 10 days) was “negligible decomplexation”. For the same compound, the decomplexation ([9]; 1N HCl, room temperature, after 487 h) was “almost no decomplexation”, the decomplexation ([9]; 1N HNO3, over 10 days) was “negligible decomplexation” and the decomplexation ([9]; 100 equivalents of zinc chloride at 50 °C, ~100 h) was “no obvious decomplexation”. For the same compound, the stability and interconversion ([9]; one equivalent of DOTA ligand in 1N HCl) was “no interconversion was observed”, the “MR enhancement of liver and gall bladder” value [7] was “very similar behaviour to [GdL2B]^−” and the “Gd concentration in gall bladder” value [8] was 854 nmol Gd per gram tissue. For the same compound, the “Gd concentration in blood” value ([8]; listed as GdL2A) was 0.49 nmol Gd per gram tissue, the “Gd concentration in gall bladder” value ([8]; listed as GdL2A) was 854.21 nmol Gd per gram tissue and the “Gd concentration in heart” value ([8]; listed as GdL2A) was 1.82 nmol Gd per gram tissue. The “Gd concentration in intestines” value ([8]; listed as GdL2A) was 0.05 nmol Gd per gram tissue, the “Gd concentration in kidney” value ([8]; listed as GdL2A) was 20.92 nmol Gd per gram tissue and the “Gd concentration in liver” value ([8]; listed as GdL2A) was 10.47 nmol Gd per gram tissue. For the same compound, the “Gd concentration in lung” value ([8]; listed as GdL2A) was 3.61 nmol Gd per gram tissue, the “Gd concentration in muscle” value ([8]; listed as GdL2A) was 5.18 nmol Gd per gram tissue and the “Gd concentration in spleen” value ([8]; listed as GdL2A) was 4.72 nmol Gd per gram tissue. The “Gd concentration in stomach” value ([8]; listed as GdL2A) was 3.14 nmol Gd per gram tissue and the “Gd concentration in tail” value ([8]; listed as GdL2A) was 2.13 nmol Gd per gram tissue.
In the case of `CC[C@H]1CN(CC(=O)[O-])[C@@H](CC)CN(CC(=O)[O-])[C@@H](CC)CN(CC(=O)[O-])[C@@H](CC)CN1CC(=O)[O-].[Yb+3]` [[YbL2]^−], the decomplexation [2] is reported as “no obvious decomplexation”.
